Experimental data taken from ChEMBL document CHEMBL1132872, “Synthesis of a potent aminocyclitol alpha-mannosidase inhibitor, 1L-(1,2,3,5/4)-5-amino-4-O-methyl-1,2,3,4-cyclopentanetetrol” (Bioorg Med Chem Lett, 2000).

Tests used:
Design in all cases: species or system Canavalia ensiformis
[1] = Inhibitory activity against Alpha-mannosidase (Jack bean)
[2] = Compound (at <10 e -3M) was tested for inhibition of Alpha-mannosidase (jack bean); No inhibition
[3] = Inhibitory activity against Alpha-mannosidase (Jack bean); No inhibition

| IC50 [1] [µM] | SMILES | further results |
| --- | --- | --- |
| 5 | CCS[C@@H]1[C@@H](N)[C@@H](O)[C@@H](O)[C@H]1O |  |
| 36 | N[C@H]1[C@@H](O)[C@@H](O)[C@@H](O)[C@@H]1S |  |
| 0.35 | CS[C@@H]1[C@@H](N)[C@@H](O)[C@@H](O)[C@H]1O [MANNOSTATIN A] |  |

The remaining lines, values behind:

| SMILES | IC50 [1] [µM] | further results |
| --- | --- | --- |
| CO[C@@H]1[C@@H](N)[C@@H](O)[C@@H](O)[C@H]1O | 0.16 |  |
| CO[C@H]1[C@@H](N)[C@@H](O)[C@@H](O)[C@H]1O |  | IC50 [2]: Not Active |
| N[C@@H]1C[C@H](O)[C@H](O)[C@@H]1O | 11 |  |
| CO[C@@H]1[C@@H](N)[C@@H](OC)[C@@H](O)[C@H]1O |  | IC50 [3]: Not Active |
